Source: US10314923B2, “Silybin injection and preparation method therefor” (TASLY PHARMACEUTICAL GROUP CO., LTD., priority 2015, dated 2019)
Values belong to the compound of their own block, whether it stands above or below them.

Legend:
[1] = aqueous solution; cited from earlier work
[2] = Inclusion stability of silybin injections containing different types of cyclodextrin, standing at room temperature; type: physicochemical; conditions: 50 g of cyclodextrin in 1000 ml of water for injection
From the text: The types of cyclodextrin recorded in the Chinese patent application CN200410041364.0 include: β-cyclodextrin, hydroxypropyl-β-cyclodextrin, hydroxyethyl-β-cyclodextrin, methyl-β-cyclodextrin, glucosyl-β-cyclodextrin and sulfonyl-β-cyclodextrin. The cyclodextrin adopted in the present invention is sulfobutylether-β-cyclodextrin and is a specific inclusion material for the present invention. In contrast tests, silybin injections containing different types of cyclodextrin are respectively prepared by adopting the same formulation constituents, formulation dosage and preparation process. Standing is preformed at room temperature for one-week, and the inclusion stability of the injections is observed with the passage of time, that is, the time of medicine precipitation is regarded as a study index to screen the types of cyclodextrin.
Allow the injections to stand at room temperature for one week, and respectively observe the inclusion stability of the injections over time, i.e., study the influence of different types of cyclodextrins on the inclusion stability of silybin.

[3] = Verification of preparation method of CN02125823.6: discoloration and UV scanning for destructiveness of NaOH to silybin; type: physicochemical; conditions: scanned within the wavelength of 190-600 nm
From the text: The Chinese patent application CN02125823.6 with the title “silymarin injection containing cyclodextrin or derivatives thereof” and the publication number of CN1391894A, according to the implementing scheme recorded in the Description, has the key technical features of adding silymarin into an aqueous solution containing cyclodextrin, regulating the pH of the solution to alkalinity using sodium hydroxide to dissolve silybin, and after dissolution, regulating the pH value to be 6.0 to 6.5 using hydrochloric acid to obtain a silymarin cyclodextrin inclusion compound. During verification, the silymarin is replaced with silybin, and the verification is strictly performed according to the implementing scheme described in embodiment 1 of the patent.
Dissolving 3 g of hydroxypropyl-β-cyclodextrin in 10 ml of water for injection, adding 300 mg of silybin, regulating the pH value to be 10 with 1N of NaOH solution, continuously stirring for 5 hours to dissolve the silybin, regulating the pH to be 6.5 with 1N of HCl solution, and performing filtration, bacterium removal, sub-packaging, freeze-drying and sealing, to obtain a silybin freeze-dried powder for injection.
However, for the preparation method of the present invention, the discoloration phenomenon is not found in the whole preparation process. […]

[4] = taken orally; Wu J W et al. 2007; cited from earlier work
[5] = Wang Hongchen 1983; cited from earlier work

SMILES: CNC[C@H](O)[C@@H](O)[C@H](O)[C@H](O)CO.COc1cc(C2Oc3ccc(C4Oc5cc(O)cc(O)c5C(=O)C4O)cc3OC2CO)ccc1O (centres unmarked) [silybin N-methylglucamine]
pH value [1]: about 11

dissolution of cyclodextrin in water [2]: cannot completely dissolve in water
SMILES: OC[C@H]1O[C@@H]2O[C@H]3[C@H](O)[C@@H](O)[C@@H](O[C@H]4[C@H](O)[C@@H](O)[C@@H](O[C@H]5[C@H](O)[C@@H](O)[C@@H](O[C@H]6[C@H](O)[C@@H](O)[C@@H](O[C@H]7[C@H](O)[C@@H](O)[C@@H](O[C@H]8[C@H](O)[C@@H](O)[C@@H](O[C@H]1[C@H](O)[C@H]2O)O[C@@H]8CO)O[C@@H]7CO)O[C@@H]6CO)O[C@@H]5CO)O[C@@H]4CO)O[C@@H]3CO [β-cyclodextrin]

UV absorption peaks (verification of destructiveness caused by NaOH to silybin) [3]: 287.5 nm
SMILES: COc1cc([C@@H]2Oc3cc([C@@H]4Oc5cc(O)cc(O)c5C(=O)[C@H]4O)ccc3O[C@H]2CO)ccc1O [silybin, Silybin]
absolute bioavailability [4]: 0.95%
water solubility and lipid solubility [5]: poor
